US10239889B1, “Pentacyclic compound” (Eisai R&D Management Co., Ltd., priority 2017, dated 2019)

Columns and labels:
[1] = system: acetylcholine (ACh) in CSF; assay: Measurement of acetylcholine (ACh) in rat cerebrospinal fluid (CSF); assay type: in vivo; settings: Fischer344 rat, oral 10 mg/kg once a day for three days, CSF 24 hours after administration, LC-MS
Method: Measurement of Acetylcholine (ACh) in Rat Cerebrospinal Fluid (CSF)
Thus, the changes in acetylcholine in CSF were measured in order to determine the changes in intracerebral acetylcholine by the test compounds.
(2) Compound Administration
In this study, Fischer344 male rats (Charles River Laboratories Japan, Inc.) with a body weight of about 150 to 250 g were used. The test compounds were orally administered to the rats once a day at 10 mg/kg for three days. The vehicle used was 0.01 mol/L hydrochloric acid.
At 24 hours after the administration of the vehicle and the test compounds, the CSF was collected from cistema magna in a tube containing AchE inhibitors under pentobarbital anesthesia. The collected CSF was centrifuged at 3500×g at 4° C. for 10 minutes and the supernatant was collected. The collected supernatant was frozen with liquid nitrogen, and then stored at −80° C.
(4) Measurement of Ach by LC-MS
To 10 μL of the CSF was added 50 μL of acetylcholine-d9 chloride (ACh-d9) at a final concentration of 0.34 nmol/L as an internal standard. […] The supernatant was collected and subjected to LC/MS […], and Ach was detected as precursor ion at m/z 146.050 and as product ion at m/z 87.071 and ACh-d9 as an internal standard was detected as precursor ion at m/z 155.088 and as product ion at m/z 87.000. […]

[2] = system: human tau P301S transgenic mice; assay: Evaluation in human tau P301S transgenic mouse: ChAT positive cells in the medial septal area; assay type: in vivo; settings: mean±SEM
Description: Evaluation in Human Tau P301S Transgenic Mouse
(1) Compound Administration
In this study, the test compounds were orally administered to human tau P301S transgenic mice once a day for three months from four-month-old to seven-month-old. The vehicle used was 0.01 mol/L hydrochloric acid.
At the initial day of the administration (four-month-old) and at the next day of the final administration, mice of vehicle administration group and test compound administration group were anesthetized under pentobarbital (50 mg/kg, i.p.) and perfused with PBS. After the perfusion, the forebrain including the medial septal area was collected and fixed with 4% paraformaldehyde.
(3) Preparation of Brain Coronal Frozen Section
The collected forebrain including the medial septal area was immersed and shaken overnight in 4% paraformaldehyde. […]
The prepared brain coronal frozen sections were stained with DAB (DAB PEROXIDASE SUBSTRATE KIT (Vector, SK-4100)) using a ChAT antibody (Santa Cruz, S.C.-20672) as a primary antibody. The section image including the medial septal area as shown in “The mouse Brain in stereotaxic coordinates” (COMPACT THIRD EDITION, Keith B.J. Franklin & George Paxinos) was taken by an all-in-one fluorescence microscope (KEYENCE, BZ-X710) and ChAT positive cells around the major axis of the medial septal area were counted by BZ analysis software (KEYENCE). […] Data are expressed as the mean±SEM. […]

| SMILES | Amount (%) increased with respect to from the amount of ACh in CSF the vehicle administration group [1] [%] | Ratio (%) of number of ChAT positive cells compared to that in the initial administration ([2]; oral 5 mg/kg once a day for three months (4 to 7 months old)) | Ratio (%) of number of ChAT positive cells compared to that in the initial administration ([2]; oral 10 mg/kg once a day for three months (4 to 7 months old)) |
| --- | --- | --- | --- |
| CN1CCc2c(sc3nc4n(c(=O)c23)-c2sccc2C(=O)N(C)C4)C1 [Example 3, 5,10-dimethyl-5,6,9,10,11,12-hexahydropyrido[4″,3″:4′,5′]thieno[2′,3′:4,5]pyrimido[1,2-a]thieno[3,2-f][1,4]diazepine-4,13-dione] | 156.8 | 105.3 ± 4.3^# % |  |
| CN1CCc2c(sc3nc4n(c(=O)c23)-c2ccc(F)cc2C(=O)N(C)C4)C1 [Example 1] | 160.0 |  | 105.0 ± 4.0^# % |
